From patent US20130065763A1, “Biocide Compositions Comprising Isoamyl Lactate” (priority 2010, published 2013)

Assay: Solubility in water of each lactate
Format: physicochemical
Settings: for Solubility in Water: solubility of the lactate solvent in water, yes = water soluble
Protocol: Solubility of several pesticides was measured in Isoamyl lactate versus other lactates. In addition the solubility in water of each lactate has been checked.

Structure (SMILES)	Solubility in Water	Water solubility (statement in description)
CC(C)OC(=O)C(C)O (stereo not shown) [Example C4, Isopropyl lactate]	yes	–
CC(C)CCOC(=O)C(C)O (stereo not shown) [Example 6, Isoamyl lactate]	<1%	not water soluble
CCCCOC(=O)C(C)O (stereo not shown) [Example C3, Butyl lactate]	yes	–
